Read-outs that look alike come from different tables or passages of the source.
Columns and labels:
[1] = tested on: platelet aggregation (PAF); test: Inhibitory action on PAF-induced rabbit platelet aggregation; format: cell-based; conditions: Oryctolagus cuniculus, read-out: inhibitory percentage (platelet aggregation); for inhibition at 3 µM: 3 × 10^-6 M; for inhibition at 0.3 µM: 3 × 10^-7 M; for inhibition at 0.03 µM: 3 × 10^-8 M
Description: Blood was collected directly from the hearts of male rabbits using a syringe containing, as an anticoagulant, 3.15% citric acid (one part to 9 parts of blood). The blood was subjected to centrifuge at 800 rpm for ten minutes at room temperature to obtain platelet rich plasma (PRP). The remaining blood was further subjected to centrifuge at 3000 rpm for ten minnutes to separate platelet poor plasma (PPP) as the supernatant. PRP was diluted with PPP, and the number of platelets was adjusted to about 500,000/ μl. This PRP(250 μl) was stirred for two minutes at 37° C., and there was added a test sample, and the mixture was stirred for further two minutes, followed by addition of PAF of a given concentration. Platelet aggregation was examined by means of a platelet-agglutometer (manufactured by Rika Denki). Platelet aggregation preventing action of the test sample was determined based on the maximum percent light transmission (maximum percent. agglutination).

[2] = tested on: PAF-induced hypotension; test: Inhibitory action on PAF-induced hypotension in rats; format: in vivo, rat (Sprague-Dawley); conditions: Rattus norvegicus, read-out: Inhibitory Rate (Lowering of Blood Pressure); for inhibition in vivo at 1 mg/kg / inhibition in vivo at 3 mg/kg / inhibition in vivo at 10 mg/kg: oral; for inhibition in vivo at 0.01 mg/kg / inhibition in vivo at 0.03 mg/kg: iv
Description: Sprague-Dawley male rats, each weighing about 250 g, were subjected to the experiment. The rats were cannulated on the side of femoral artery for measuring the blood pressure, and on the side of femoral vein for administering the drug. The blood pressure was measured through a pressure transducer and recorded. First, PAF (1 μg/kg) was administered intravenously (i.v.) to examine the extent of lowering of blood pressure. Then, the test samples were administered intravenously or orally. […]
The inhibitory action on PAF-induced hypotension (% inhibition) is indicated as the ratio of blood pressure-lowering degree (Δ mmHg) induced by PAF after administration of test samples relative to blood pressure-lowering degree (Δ mmHg) induced by PAF before administration of test samples.

In the case of `CCC[n+]1cc(Br)cc(C(=O)N(CCOC(=O)NCCOC(=O)Nc2cccc3ccccc23)c2ccc(Cl)cc2)c1` [Production Example 22, 5-bromo-3-[N-(4-chlorophenyl)-N-[2-[2-(1-naphthylcarbamoyloxy)ethyl]carbamoyloxy]ethyl]carbamoyl-1-propylpyridinium chloride], the inhibition at 3 µM [1] is reported as 100%, the inhibition at 0.3 µM [1] is reported as 100% and the inhibition at 0.03 µM [1] is reported as 11%.

With `CCC[n+]1cc(Br)cc(C(=O)N(CCOC(=O)NCCCOC(=O)Nc2cccc3ccccc23)c2ccccc2)c1` [Production Example 52, 5-bromo-3-[N-2-[3-(1-naphthylcarbamoyloxy)propyl]carbamoyloxy]ethyl-N-phenyl]carbamoyl-1-propyl pyridinium chloride] the inhibition in vivo at 1 mg/kg ([2]; 1 hr.) was 30%, the inhibition in vivo at 1 mg/kg ([2]; 2 hr.) was 47% and the inhibition in vivo at 1 mg/kg ([2]; 4 hr.) was 37%. For the same molecule, the inhibition in vivo at 1 mg/kg ([2]; 6 hr.) was 51%, the inhibition in vivo at 1 mg/kg ([2]; 8 hr.) was 31% and the inhibition in vivo at 3 mg/kg ([2]; 1 hr.) was 87%. For the same molecule, the inhibition in vivo at 3 mg/kg ([2]; 2 hr.) was 92%, the inhibition in vivo at 3 mg/kg ([2]; 4 hr.) was 89% and the inhibition in vivo at 3 mg/kg ([2]; 6 hr.) was 88%. It also gave an inhibition in vivo at 3 mg/kg ([2]; 8 hr.) of 81%, an inhibition in vivo at 10 mg/kg ([2]; 1 hr.) of 92% and an inhibition in vivo at 10 mg/kg ([2]; 2 hr.) of 95%. For the same molecule, the inhibition in vivo at 10 mg/kg ([2]; 4 hr.) was 98%, the inhibition in vivo at 10 mg/kg ([2]; 6 hr.) was 96% and the inhibition in vivo at 10 mg/kg ([2]; 8 hr.) was 95%. For the same molecule, the inhibition at 3 µM [1] was 100%, the inhibition at 0.3 µM [1] was 100% and the inhibition at 0.03 µM [1] was 27%.

`CCCCN(CCOC(=O)NCCOc1cccc2ccccc12)C(=O)c1cc(Br)c[n+](CC)c1` [Production Example 19, 5-bromo-1-ethyl-3-[N-butyl-N-[2-[2-(1-naphthyloxy)ethyl]carbamoyloxy]ethyl]carbamoylpyridinium iodide] gave an inhibition at 3 µM [1] of 100%, an inhibition at 0.3 µM [1] of 100% and an inhibition at 0.03 µM [1] of 42%.

Molecule `CCC[n+]1cc(Br)cc(C(=O)N(CCOC(=O)NCCOC(=O)Nc2cccc3ccccc23)c2ccc(I)cc2)c1` [Production Example 25, 5-bromo-3-[N-(4-iodophenyl)-N-[2-[2-(1-naphthylcarbamoyloxy)ethyl]carbamoyloxy]ethyl]carbamoyl-1-propylpyridinium chloride] has an inhibition at 3 µM [1] of 100%, an inhibition at 0.3 µM [1] of 100% and an inhibition at 0.03 µM [1] of 18%.

`CCC[n+]1cc(Br)cc(C(=O)N(CCOC(=O)NCCOC(=O)Nc2cccc3ccccc23)c2cccc(Cl)c2)c1` [Production Example 44, 5-bromo-3-[N-(3-chlorophenyl)-N-[2-[2-(1-naphthylcarbamoyloxy)ethyl]carbamoyloxy]ethyl]carbamoyl-1-propylpyridinium chloride] gave an inhibition in vivo at 0.01 mg/kg ([2]; 1 hr.) of 58%, an inhibition in vivo at 0.01 mg/kg ([2]; 2 hr.) of 54% and an inhibition in vivo at 0.01 mg/kg ([2]; 4 hr.) of 47%. It also gave an inhibition in vivo at 0.01 mg/kg ([2]; 6 hr.) of 41%, an inhibition in vivo at 0.03 mg/kg ([2]; 1 hr.) of 81% and an inhibition in vivo at 0.03 mg/kg ([2]; 2 hr.) of 71%. For the same molecule, the inhibition in vivo at 0.03 mg/kg ([2]; 4 hr.) was 64%, the inhibition in vivo at 0.03 mg/kg ([2]; 6 hr.) was 59% and the inhibition in vivo at 0.03 mg/kg ([2]; 8 hr.) was 39%. For the same molecule, the inhibition in vivo at 0.01 mg/kg ([2]; 5 min, i.v., 5 min.) was 68%, the inhibition in vivo at 0.03 mg/kg ([2]; 5 min, i.v., 5 min.) was 97% and the inhibition in vivo at 1 mg/kg ([2]; 1 hr.) was 62%. For the same molecule, the inhibition in vivo at 1 mg/kg ([2]; 2 hr.) was 74%, the inhibition in vivo at 1 mg/kg ([2]; 4 hr.) was 73% and the inhibition in vivo at 1 mg/kg ([2]; 6 hr.) was 68%. It also gave an inhibition in vivo at 1 mg/kg ([2]; 8 hr.) of 61%, an inhibition in vivo at 3 mg/kg ([2]; 1 hr.) of 77% and an inhibition in vivo at 3 mg/kg ([2]; 2 hr.) of 84%. It also gave an inhibition in vivo at 3 mg/kg ([2]; 4 hr.) of 97%, an inhibition in vivo at 3 mg/kg ([2]; 6 hr.) of 94% and an inhibition in vivo at 3 mg/kg ([2]; 8 hr.) of 92%. It also gave an inhibition at 3 µM [1] of 100%, an inhibition at 0.3 µM [1] of 100% and an inhibition at 0.03 µM [1] of 27%.

With `CCC[n+]1cc(Cl)cc(C(=O)N(CCC(=O)NCCOC(=O)N2CCc3ccccc3C2)c2ccccc2)c1` [Production Example 88, 5-Chloro-3-[N-[2-[[2-(1,2,3,4-tetrahydroisoquinolyl)carbonyloxy]ethyl]carbamoyl]ethyl-N-phenyl]carbamoyl-1-propylpyridinium chloride] the inhibition in vivo at 0.01 mg/kg ([2]; 1 hr.) was 59%, the inhibition in vivo at 0.01 mg/kg ([2]; 2 hr.) was 55% and the inhibition in vivo at 0.01 mg/kg ([2]; 4 hr.) was 40%. The inhibition in vivo at 0.01 mg/kg ([2]; 6 hr.) was 25%, the inhibition in vivo at 0.01 mg/kg ([2]; 8 hr.) was 19% and the inhibition in vivo at 0.01 mg/kg ([2]; 5 min, i.v., 5 min.) was 95%. For the same molecule, the inhibition in vivo at 1 mg/kg ([2]; 1 hr.) was 70%, the inhibition in vivo at 1 mg/kg ([2]; 2 hr.) was 75% and the inhibition in vivo at 1 mg/kg ([2]; 4 hr.) was 73%. It also gave an inhibition in vivo at 1 mg/kg ([2]; 6 hr.) of 61%, an inhibition in vivo at 1 mg/kg ([2]; 8 hr.) of 58% and an inhibition in vivo at 3 mg/kg ([2]; 1 hr.) of 93%. The inhibition in vivo at 3 mg/kg ([2]; 2 hr.) was 95%, the inhibition in vivo at 3 mg/kg ([2]; 4 hr.) was 98% and the inhibition in vivo at 3 mg/kg ([2]; 6 hr.) was 83%. The inhibition in vivo at 3 mg/kg ([2]; 8 hr.) was 85%, the inhibition at 3 µM [1] was 100% and the inhibition at 0.3 µM [1] was 100%. It also gave an inhibition at 0.03 µM [1] of 33%.

For `CCC[n+]1cc(Br)cc(C(=O)N(CCOC(=O)NCCOC(=O)Nc2cccc3ccccc23)c2cccc(OC)c2)c1` [Production Example 94, 5-Bromo-3-[N-(3-methoxyphenyl)-N-[2-[2-(1-naphthylcarbamoyloxy)ethyl]carbamoyloxy]ethyl]carbamoyl-1-propylpyridinium chloride], the inhibition in vivo at 0.03 mg/kg ([2]; 1 hr.) was 94%, the inhibition in vivo at 0.03 mg/kg ([2]; 2 hr.) was 86% and the inhibition in vivo at 0.03 mg/kg ([2]; 4 hr.) was 70%. For the same molecule, the inhibition in vivo at 0.03 mg/kg ([2]; 6 hr.) was 63%, the inhibition in vivo at 0.03 mg/kg ([2]; 8 hr.) was 52% and the inhibition in vivo at 0.03 mg/kg ([2]; 5 min, i.v., 5 min.) was 100%. It also gave an inhibition in vivo at 1 mg/kg ([2]; 1 hr.) of 27%, an inhibition in vivo at 1 mg/kg ([2]; 2 hr.) of 34% and an inhibition in vivo at 1 mg/kg ([2]; 4 hr.) of 50%. The inhibition in vivo at 1 mg/kg ([2]; 6 hr.) was 50%, the inhibition in vivo at 1 mg/kg ([2]; 8 hr.) was 40% and the inhibition in vivo at 3 mg/kg ([2]; 1 hr.) was 67%. The inhibition in vivo at 3 mg/kg ([2]; 2 hr.) was 89%, the inhibition in vivo at 3 mg/kg ([2]; 4 hr.) was 93% and the inhibition in vivo at 3 mg/kg ([2]; 6 hr.) was 97%. For the same molecule, the inhibition in vivo at 3 mg/kg ([2]; 8 hr.) was 90%, the inhibition at 3 µM [1] was 100% and the inhibition at 0.3 µM [1] was 99%. The inhibition at 0.03 µM [1] was 10%.

Molecule `CCC[n+]1cc(Br)cc(C(=O)N(CCOC(=O)NCCOC(=O)Nc2cccc3ccccc23)c2cc(OC)c(OC)c(OC)c2)c1` [Production Example 27, 5-bromo-3-[N-[2-[2-(1-naphthylcarbamoyloxy)ethyl]carbamoyloxy]ethyl-N-(3,4,5-trimethoxyphenyl)]carbamoyl-1-propylpyridinium chloride] has an inhibition at 3 µM [1] of 100%, an inhibition at 0.3 µM [1] of 100% and an inhibition at 0.03 µM [1] of 3%.

`CCN(CCOC(=O)NCCOc1cccc2ccccc12)C(=O)c1cc(Br)c[n+](CC)c1` [Production Example 15, 5-bromo-1-ethyl-3-[N-ethyl-N-[2-[2-(1-naphthyloxy)ethyl]carbamoyloxy]ethyl]carbamoylpyridinium iodide] gave an inhibition at 3 µM [1] of 100%, an inhibition at 0.3 µM [1] of 100% and an inhibition at 0.03 µM [1] of 22%.

With `CCCCCCCCCCCCCCCCCCNC(=O)OCC(COC(=O)NCCN(C)C(=O)c1ccc[n+](CC)c1)OC` (centres unmarked) [Production Example 1, 3-[N-[2-(2-methoxy-3-octadecylcarbamoyloxypropoxycarbonyl)]aminoethyl-N-methyl]carbamoyl-1-ethylpyridinium iodide] the inhibition at 3 µM [1] was 100%, the inhibition at 0.3 µM [1] was 100% and the inhibition at 0.03 µM [1] was 9%.

With `CC[n+]1cc(Br)cc(C(=O)N(CCOC(=O)NCCOc2cccc3ccccc23)c2ccccc2)c1` [Production Example 6, 5-bromo-3-[N-[2-[2-(1-naphthyloxy)ethyl]carbamoyloxy]ethyl-N-phenyl]carbamoyl-1-ethylpyridinium iodide] the inhibition at 3 µM [1] was 100%, the inhibition at 0.3 µM [1] was 100% and the inhibition at 0.03 µM [1] was 34%.

Reference: patent US4962113A, “Pyridinium derivatives, their production and use” (Takeda Chemical Industries, Ltd, priority 1987, dated 1990)
